According to US20040106653A1, “Aminoalcohol derivatives” (FUJISAWA PHARMACEUTICAL CO., LTD., priority 2002, published 2004):

System: carbachol-induced increase in intravesical pressure (IVP) in anesthetized dog
Experiment: Effect on the increase in intravesical pressure induced by carbachol in anesthetized dog
Format: in vivo
Conditions: 0.032 mg/kg, intravenous; female Beagle dogs under halothane anesthesia; carbachol 1.8 μg/kg
Description: Effect on the increase in intravesical pressure induced by carbachol in anesthetized dog Test Method Female Beagle dogs weighing 8.0-15.0 kg were fasted for 24 hours and maintained under halothane anesthesia. A 12F Foley catheter was lubricated with water soluble jelly, inserted into the urethral orifice and advanced approximately 10 cm until the balloon tip was placed well inside the bladder. The balloon was then inflated with 5 ml of room air and catheter slowly withdrawn just part the first resistance that is felt at the bladder neck. Urine was completely drained out through the catheter, and 30 ml of biological saline was infused. The catheter was connected to pressure transducer, and intravesical pressure was continuously recorded. Intravenous administration of test compound (I) inhibited carbachol (1.8 μg/kg)-induced increase in intravesical pressure (IVP).

C[C@H](Cc1ccc(S(=O)(=O)c2ccc(C(=O)N(C)CC(=O)O)cc2)cc1)NC[C@H](O)c1cccc(Cl)c1.Cl [Test Compound (1), [[4-[[4-[(2R)-2-[[(2R)-2-(3-Chlorophenyl)-2-hydroxyethyl]amino]propyl]phenyl]sulfonyl]benzoyl]-(methyl)amino]acetic acid hydrochloride]
% inhibition of carbachol-induced increase in IVP: 80.8%
